According to PMC9933483, “Tail-Approach-Based Design and Synthesis of Coumarin-Monoterpenes as Carbonic Anhydrase Inhibitors and Anticancer Agents” (ACS Omega, 2023):

Key:
[1] = tested on: HT-29 cell line; assay: Cell cytotoxicity, MTT assay; assay type: cell-based, human; conditions: Homo sapiens, HT-29; MTT, 24 h
[2] = target: hCA IX (Homo sapiens, UniProt Q16790); assay: biochemical

Row | SMILES | IC50 [1] [µM] | Ki [2] [µM] | melting point [°C]
1 | Cc1ccc(C(C)C)cc1OCc1cn(CCCCCCCCCCOc2ccc3ccc(=O)oc3c2)nn1 [Compound 26, 7-((10-(4-((5-Isopropyl-2-methylphenoxy)methyl)-1H-1,2,3-triazol-1-yl)decyl)oxy)-2H-chromen-2-one] | 40.8 ± 10.2 | 0.258 | 73 to 74
2 | C=CCc1ccc(OCc2cn(CCCCCCCCCCCCOc3ccc4ccc(=O)oc4c3)nn2)c(OC)c1 [Compound 35, 7-((12-(4-((4-Allyl-2-methoxyphenoxy)methyl)-1H-1,2,3-triazol-1-yl)dodecyl)oxy)-2H-chromen-2-one] | 23.2 ± 6.94 | 0.0299 | 72 to 74
3 | Cc1ccc(C(C)C)c(OCc2cn(CCCCCCCCCCCCOc3ccc4ccc(=O)oc4c3)nn2)c1 [Compound 19, 7-((12-(4-((2-Isopropyl-5-methylphenoxy)methyl)-1H-1,2,3-triazol-1-yl)dodecyl)oxy)-2H-chromen-2-one] | 37.6 ± 11.7 | 0.0218 | 68 to 69
4 | CC1CCC(C(C)C)C(OCc2cn(CCCCOc3ccc4ccc(=O)oc4c3)nn2)C1 (stereo not drawn) [Compound 38, 7-(4-(4-(((2-Isopropyl-5-methylcyclohexyl)oxy)methyl)-1H-1,2,3-triazol-1-yl)butoxy)-2H-chromen-2-one] | 37.2 ± 11.6 | 0.3 | 75 to 76
5 | Cc1ccc(C(C)C)cc1OCCCCCCCCCCOc1ccc2ccc(=O)oc2c1 [Compound 58, 7-((10-(5-Isopropyl-2-methylphenoxy)decyl)oxy)-2H-chromen-2-one] | > 200 |  | 50 to 51
6 | C=CCc1ccc(OCCCOc2ccc3ccc(=O)oc3c2)c(OC)c1 [Compound 61, 7-(3-(4-Allyl-2-methoxyphenoxy)propoxy)-2H-chromen-2-one] | > 80 |  | 70 to 71
7 | C=CCc1ccc(OCc2cn(CCCCCCCCCOc3ccc4ccc(=O)oc4c3)nn2)c(OC)c1 [Compound 33, 7-((9-(4-((4-Allyl-2-methoxyphenoxy)methyl)-1H-1,2,3-triazol-1-yl)nonyl)oxy)-2H-chromen-2-one] | 31.3 ± 10.9 | 0.189 | 83 to 84
8 | Cc1ccc(C(C)C)c(OCCOc2ccc3ccc(=O)oc3c2)c1 [Compound 44, 7-(2-(2-Isopropyl-5-methylphenoxy)ethoxy)-2H-chromen-2-one] | 55.6 ± 4.91 |  | 181 to 182
9 | Cc1ccc(C(C)C)cc1OCCOc1ccc2ccc(=O)oc2c1 [Compound 52, 7-(2-(5-Isopropyl-2-methylphenoxy)ethoxy)-2H-chromen-2-one] | 74.2 ± 6.48 |  | 172 to 173
10 | Cc1ccc(C(C)C)cc1OCc1cn(CCCCCCCCCOc2ccc3ccc(=O)oc3c2)nn1 [Compound 25, 7-((9-(4-((5-Isopropyl-2-methylphenoxy)methyl)-1H-1,2,3-triazol-1-yl)nonyl)oxy)-2H-chromen-2-one] | 47.6 ± 13.8 | 0.0897 | 69 to 70
11 | C=CCc1ccc(OCc2cn(CCCCCCCCCCOc3ccc4ccc(=O)oc4c3)nn2)c(OC)c1 [Compound 34, 7-((10-(4-((4-Allyl-2-methoxyphenoxy)methyl)-1H-1,2,3-triazol-1-yl)decyl)oxy)-2H-chromen-2-one] | 25.7 ± 8.15 | 0.0281 | 48 to 49
12 | C=CCc1ccc(OCCCCCCCOc2ccc3ccc(=O)oc3c2)c(OC)c1 [Compound 64, 7-((7-(4-Allyl-2-methoxyphenoxy)heptyl)oxy)-2H-chromen-2-one] | > 80 |  | 62 to 63
13 | C=CCc1ccc(OCCCCCCCCCOc2ccc3ccc(=O)oc3c2)c(OC)c1 [Compound 65, 7-((9-(4-Allyl-2-methoxyphenoxy)nonyl)oxy)-2H-chromen-2-one] | 39.4 ± 7.1 |  | 56 to 57
